“And” between values parts separate entries of the source, which are not always exact repeats. Identical values can stand only once.
Key:
[1] = tested on: fibroblasts from NPC patients; test: Relative lysosomal volume via LysoTracker; assay type: cell-based, human; settings: 1 mM
Protocol: A fibroblast cell line from an NPC patient was treated for 3 days with N-acetyl-DL-leucine (1 mM) and relative lysosomal volume was quantified via LysoTracker, a fluorescent dye that accumulates in acidic organelles. Increased LysoTracker fluorescence is indicative of an increase in lysosomal size and/or number, and is a hallmark of NPC cells.

[2] = tested on: Mucopolysaccharidosis Type IIIB (MPS IIIB) patient fibroblasts; test: Lysosomal volume via LysoTracker; assay type: cell-based, human; settings: 1 mM, 6 days
[3] = tested on: Aspartylglucosaminuria patient fibroblasts; test: Lysosomal volume via LysoTracker; assay type: cell-based, human; settings: 1 mM, 6 days
[4] = tested on: Mucolipidosis Type IIIA (MLIIIA) patient fibroblasts; test: Lysosomal volume via LysoTracker; assay type: cell-based, human; settings: 1 mM, 6 days
[5] = tested on: Sandhoff disease model, Hexb−/− mouse; test: Bar crossing test; assay type: in vivo; settings: Sandhoff mice, 0.1 g/kg from 3 weeks of age
Description: This study made use of a mouse model of Sandhoff disease, the Hexb^−/− mouse, as descrbed in Jeyakumar et al. (Jeyakumar, M. et al. (1999) Proc. Natl. Acad. Sci. USA 96: 6388-6393). The bar crossing test is a method for assessing motor function in mice in which the mouse is placed hanging from the centre of a horizontal bar by its front limbs. A wild-type mouse with normal motor function will be able to engage its hind limbs and thereby move to one of the platforms at either end of the bar, and in doing so complete the test. […] In FIG. 7 B, acetyl-leucine treatment of 0.1 g/kg body weight was provided from 3 weeks of age. The acetyl-leucine treated Sandhoff mice retained the ability to complete the test up to 13 weeks of age (inclusive). Data shown is the mean of 6 mice per group. The treated Sandhoff mice retained the ability to complete the test up to 13 weeks of age (inclusive).

[6] = tested on: AB variant of Tay-Sachs disease patient fibroblasts; test: Glycosphingolipid (GSL) levels via HPLC; assay type: cell-based, human; settings: 1 mM for 6 days
[7] = tested on: patient with corticobasal syndrome; test: Case study, corticobasal syndrome; assay type: in vivo, human
Protocol: Gait analysis was performed before treatment commenced.

[8] = tested on: patient with Spinocerebellar Ataxia (SCA) 1; test: Case study, Spinocerebellar Ataxia (SCA) 1; assay type: in vivo, human
[9] = tested on: patient with Lewy Body dementia; test: Case study, Lewy Body dementia; assay type: in vivo, human; settings: Lewy Body dementia patient
Protocol: The patient started taking acetyl-leucine (3 g/day for one week; 5 g/day thereafter) and was evaluated after four weeks. […] Medication was reduced to 3 g/day, and the patient was instructed to stop medication about two weeks later.

[10] = tested on: microtubule-associated protein 1A/1B-light chain 3-phosphatidylethanolamine conjugate (LC3-II); test: LC3-II levels relative to tubulin loading control; assay type: in vivo, mouse; settings: NPC1−/− mice, 0.1 g/kg body weight daily from 3 weeks, sacrificed at 8 weeks
Protocol: The Niemann-Pick Disease Type C (NPC) mouse model shares a number of pathological features with Alzheimer's disease (AD) as described herein. […] Mice were sacrificed at 8 weeks of age. Levels of amyloid precursor protein C-terminal fragments (APP-CTFs) were evaluated relative to total amyloid precursor protein (APP) levels in the cerebellum for wild type, untreated wild type NPC1^−/− mice, and AL-treated wild type NPC1^−/− mice. Levels of microtubule-associated protein 1A/1B-light chain 3-phosphatidylethanolamine conjugate (LC3-II) were also evaluated relative to levels of tubulin loading control for wild type, untreated wild type NPC1^−/− mice, and AL-treated wild type NPC1^−/− mice.

[11] = tested on: subjects with no apparent dysfunction in cognitive ability or movement/balance; test: Psychomotor Vigilance Task (Mind Metrics App); assay type: in vivo, human
Description: For example, the Psychomotor Vigilance Task (PVT) is a sustained-attention, reaction-timed task that measures the speed with which subjects respond to a visual stimulus. The subject monitors a screen and presses the screen as quickly as possible upon the appearance of visual stimuli. The visual stimuli will then disappear and reappear (at irregular time intervals) e.g., 10 times over the course of the test, with the subject touching the screen as quickly as possible upon each reappearance. Test performance is quantified from an average of the e.g. 10 reaction times. The subject's reaction speed and alertness was assessed using the Mind Metrics App (Psychomotor Vigilance Task, 10 trials per test). The Psychomotor Vigilance Task (PVT) is a sustained-attention, reaction-timed task that measures the speed with which subjects respond to a visual stimulus. The subject is required to monitor a screen and press the screen as quickly as possible upon the appearance of visual stimuli. The visual stimuli will then disappear and reappear (at irregular time intervals) 10 times over the course of the test, with the subject touching the screen as quickly as possible upon each reappearance. Test performance is quantified from an average of the 10 reaction times. […] The subject was assessed for 2 weeks prior to taking acetyl-leucine, which constitutes the baseline period. […] Medication was taken at least 2 hours after and 30 minutes prior to eating. The 5 g daily dose was taken in 3 separate doses throughout the day—2 g upon waking, 1.5 g prior to lunch and 1.5 g prior to the evening meal. Daily treatments and assessments continued for 4 weeks. […]

[12] = tested on: patients with progressive supranuclear palsy; test: Case studies, progressive supranuclear palsy; assay type: in vivo, human
[13] = tested on: patients with multiple system atrophy Parkinson type (MSA-P); test: Case studies, multiple system atrophy Parkinson type; assay type: in vivo, human
[14] = one line per subject (age/gender 66 M, 29 M, 55 F, 50 M, 53 M, 48 F), listed as acetyl-leucine
[15] = MSA-P Patient 2, after one month of treatment

**Q.** Which results are given for CC(=O)NC(CC(C)C)C(=O)O (racemic) [acetyl-DL-leucine]?
**A.** LysoTracker fluorescence (lysosomal volume) ([1]; NPC patient of mild clinical severity): significant decrease in LysoTracker fluorescence; LysoTracker fluorescence (lysosomal volume) ([1]; additional NPC patients of variable clinical severity, 72 hours): findings were replicated; LysoTracker fluorescence vs untreated disease fibroblasts [2]: statistically significant reduction in LysoTracker fluorescence toward control level; LysoTracker fluorescence vs untreated disease fibroblasts [3]: trend in reducing LysoTracker fluorescence toward control level; LysoTracker fluorescence vs untreated disease fibroblasts [4]: trend in reducing LysoTracker fluorescence toward control level; Age up to which ability to complete the bar crossing test was retained (inclusive) [5]: up to 13 weeks of age; Motor function and hind-limb mobility/engagement, bar-crossing test [5]: improved motor function and hind-limb mobility/engagement; GSL levels [6]: trend towards decreased GSL levels; Frequency of falls ([7]; after 20 days): significant reduction in the frequency of falls; Gait analysis parameters (summary) ([7]; after 20 days): objective improvement in gait analysis parameters; Dizziness symptoms ([7]; after 20 days, 3 g then 5 g per day): improvement of dizziness symptoms; Dizziness after suspension ([7]; two days after suspension of treatment): increase of dizziness symptoms; Symptoms ([8]; three weeks on medication, 5 g/day): all symptoms significantly improved; Intensity of signs and symptoms after stop ([8]; two weeks after medication was stopped): the same as before therapy; Patient report on treatment ([9]; after four weeks, 3 g/day then 5 g/day): increased fatigue and a deterioration of balance and speech; Patient report on decreased dose ([9]; reduced to 3 g/day): did not report improvement of symptomatology with the decreased dose; LC3-II levels relative to tubulin [10]: lowering of LC3-II; % change in Reaction Time ([11]; on-treatment vs baseline, one line per subject (66 M, 29 M, 55 F, 50 M, 53 M, 48 F), listed as acetyl-leucine): −3.593% and 1.408% and 8.13% and −10.24% and −7.474% and −30.86%; Details on Subjective Improvement ([11]; one line per subject): Improvement in general; Statistically significant improvement in PVT performance on treatment? [11, 14]: Yes (4×) and No (2×); Subjective Improvement on treatment? [11, 14]: Yes (5×) and No; Adverse effects ([11]; person five): None reported; Subjective measurements ([11]; person five): feeling less tired than usual; Adverse effects ([11]; person four): None reported; Subjective measurements ([11]; person four): improvement in general alertness; Adverse effects ([11]; person one): None reported; Subjective measurements ([11]; person one): shortening of the time required to go from ‘asleep’ to ‘fully awake’; Adverse effects ([11]; person six): None reported; Subjective measurements ([11]; person six): no difference between on and off medication; Subjective measurements ([11]; person three): improvement in general alertness; Adverse events ([11]; person three, first week on medication, one occasion): mild dizziness/lightheadedness; Adverse effects ([11]; person two): None reported; Subjective measurements ([11]; person two): improvement in general alertness; Symptoms after stopping medication ([12]; PSP Patient 2, about two months later): no deterioration of symptoms after stopping medication; Symptoms after stopping medication ([12]; PSP Patient 3, about two months later): no deterioration of symptoms after stopping medication; Symptoms after stopping medication ([13]; MSA-P Patient 1, 6 weeks later): did not report deterioration of symptoms; Gait, falls, hypokinetic rigid-syndrome (patient report) ([13]; MSA-P Patient 1, after 3 weeks): no significant improvement of gait, reduction of falls or improved hypokinetic rigid-syndrome; Balance (clinical examination) [13, 15]: improved balancing on an imaginary tightrope; Dizziness (patient report) [13, 15]: subjective improvement of dizziness; Symptomatology (patient report) ([13]; MSA-P Patient 2, after one month without medication): stable symptomatology; Symptomatology (patient report) ([13]; MSA-P Patient 2, after two months without medication): worsening of general symptomatology

Reference: patent publication US12458614B2, “Therapeutic agents for improved mobility and cognitive function and for treating neurodegenerative diseases and lysosomal storage disorders” (priority 2017, dated 2025)
